Molecular target: Glycogen synthase kinase-3 beta (Homo sapiens, UniProt P49841)
Assay: concentration-response blocking of human GSK3B – biochemical, luminescence, cell-free homogeneous, retest, dose response (AID 434954)

Sequence of Glycogen synthase kinase-3 beta (P49841 whole entry): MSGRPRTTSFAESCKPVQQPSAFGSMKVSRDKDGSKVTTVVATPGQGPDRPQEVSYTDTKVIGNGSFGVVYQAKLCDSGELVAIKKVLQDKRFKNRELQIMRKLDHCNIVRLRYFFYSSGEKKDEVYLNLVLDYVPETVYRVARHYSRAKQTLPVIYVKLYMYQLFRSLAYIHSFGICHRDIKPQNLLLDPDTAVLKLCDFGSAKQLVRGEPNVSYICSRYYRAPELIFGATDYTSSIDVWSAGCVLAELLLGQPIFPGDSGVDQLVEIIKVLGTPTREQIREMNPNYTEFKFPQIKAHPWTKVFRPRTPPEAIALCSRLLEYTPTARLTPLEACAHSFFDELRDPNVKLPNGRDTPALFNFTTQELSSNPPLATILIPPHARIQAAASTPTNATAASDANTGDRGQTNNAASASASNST

Structure (SMILES)	EC50 [µM]
CC(=O)Nc1ccccc1C(=O)OCc1ccc(C(=O)c2ccccc2)cc1	> 300
CCOC(=O)c1ccc(NS(=O)(=O)c2ccc3c(c2)NC(=O)CCS3)cc1 [SMR000630284]	> 300
C[n+]1ccccc1C=Cc1cc(Br)ccc1O [SMR000554448]	> 300
COC(=O)c1cn(NC(=O)c2cccnc2)c(=O)c2ccccc12 [1-keto-2-nicotinamido-isoquinoline-4-carboxylic acid methyl ester]	> 300
Oc1cc(SC(=Nc2ccccc2)Nc2ccccc2)c(O)n1-c1cccc2ccccc12 [MLS000558765]	> 300
CCCc1cc(O)c2c(C)cc(=O)oc2c1 [5-hydroxy-4-methyl-7-propyl-1-benzopyran-2-one]	> 300
c1cncc(-c2nc(NCc3ccco3)c3ccccc3n2)c1 [N-(2-furanylmethyl)-2-(3-pyridinyl)-4-quinazolinamine]	> 300
CC(C)N(Cc1nnc(-c2ccc(Cl)cc2)o1)C(=O)C1=COCCO1	> 300
CCOC(=O)c1c(C)[nH]c(C)c1C(=O)CN1C(=O)NC(CC(C)C)C1=O (configuration not stated) [ethyl 2,5-dimethyl-4-[2-[4-(2-methylpropyl)-2,5-dioxoimidazolidin-1-yl]acetyl]-1H-pyrrole-3-carboxylate]	> 300
CC(C)(C)c1csc(NC(=O)c2cccnc2)n1 [SMR000496644]	> 300
CCOC(=O)c1sc2c(c1C)C(c1cccs1)C1C(=O)CCCC1=N2 (configuration not stated) [MLS000082170]	> 300
O=S(=O)(/C=C/c1ccccc1)N1CCN(Cc2ccc3c(c2)OCO3)CC1	> 300
COc1ccc(CNC(=O)CN(Cc2ccccc2)C(=O)CCC(=O)Nc2nccs2)cc1 [N'-[2-[(4-methoxyphenyl)methylamino]-2-oxoethyl]-N'-(phenylmethyl)-N-(2-thiazolyl)butanediamide]	11.1
O=c1cc(-c2ccc(O)cc2)oc2cc(O)cc(O)c12 [Naringenin, 18]	49.5
N#CCCn1cc(CN=O)c(-c2ccc(-c3ccccc3)cc2)n1 [3-[4-(hydroxyiminomethyl)-3-(4-phenylphenyl)pyrazol-1-yl]propanenitrile]	> 300
COc1ccc(Cl)cc1-c1nc(N)nc(NC2CCCCC2)n1 [MLS000698409]	> 300
CC(=O)Oc1ccc2occ(C(=O)c3ccccc3)c2c1 [acetic acid (3-benzoyl-5-benzofuranyl) ester]	> 300
CN(C)c1ccc(C(=O)NN2C(=O)c3ccccc3C2=O)cc1 [4-(dimethylamino)-N-(1,3-dioxo-2-isoindolyl)benzamide]	> 300
CCCN(C(=O)CCNC(=O)Cn1cnc2ccccc2c1=O)c1cccc(Cl)c1 [N-(3-chlorophenyl)-3-[[2-(4-oxoquinazolin-3-yl)acetyl]amino]-N-propylpropanamide]	> 300
COc1ccc(C(C)N2CC34C=CC(O3)C(C(=O)O)C4C2=O)cc1 (configuration not stated) [3-[1-(4-Methoxy-phenyl)-ethyl]-4-oxo-10-oxa-3-aza-tricyclo[5.2.1.0*1,5*]dec-8-ene-6-carboxylic acid]	> 300
CC(C)C1Cc2c(sc3c2c(=O)n(-c2ccccc2)c2n[nH]c(=S)n32)CO1 (configuration not stated) [7-Isopropyl-1-mercapto-4-phenyl-6,9-dihydro-4H,7H-8-oxa-10-thia-2,3,4,10b-tetraaza-cyclopenta[a]fluo ren-5-one]	> 300

Structure (SMILES)	EC50 [µM]
O=c1c(O)c(-c2ccc(O)cc2)oc2cc(O)cc(O)c12	11.6
CCSc1ccc2nnc(-c3cccc(F)c3)n2n1 [6-(ethylthio)-3-(3-fluorophenyl)-[1,2,4]triazolo[4,3-b]pyridazine]	18.7
CCCn1nc(NC(=O)c2cccs2)c2cc3cc(OC)ccc3nc21 [N-(6-methoxy-1-propyl-3-pyrazolo[3,4-b]quinolinyl)-2-thiophenecarboxamide]	44.5
Cc1ccc(S(=O)(=O)N2CCN(CC(=O)NN=Cc3ccco3)CC2)cc1 [MLS000590873]	> 300
COc1ccccc1Oc1coc2c(CN(C)C)c(O)ccc2c1=O [8-[(dimethylamino)methyl]-7-hydroxy-3-(2-methoxyphenoxy)chromen-4-one]	> 300
CCSc1nnc(-c2cccs2)o1 [2-ethylsulfanyl-5-thiophen-2-yl-1,3,4-oxadiazole]	> 300
COc1ccc(Nc2nc(-c3ccncc3)nc3ccccc23)cc1 [N-(4-methoxyphenyl)-2-pyridin-4-ylquinazolin-4-amine]	> 300
CCCN(CCC)Cc1c(C(=O)NN=Cc2ccc(C)o2)nnn1-c1nonc1N [1-(4-azanyl-1,2,5-oxadiazol-3-yl)-5-[(dipropylamino)methyl]-N-[(5-methylfuran-2-yl)methylideneamino]-1,2,3-triazole-4-carboxamide]	> 300
CCN(CC)CCOC(=O)c1ccc(NC(=S)NC(=O)C=Cc2ccco2)cc1 [MLS001178772]	> 300
O=C(O)COc1ccc2occ(C(=O)c3ccccc3)c2c1	4.3
O=NCc1cn(-c2ccccc2)nc1-c1ccccc1 [1,3-diphenyl-4-pyrazolecarboxaldehyde oxime]	26
COc1cccc(N(C(=O)C[S+]([O-])CC(=O)Nc2ccc(F)cc2)C(C(=O)NC2CCCCC2)c2cccs2)c1 (configuration not stated) [MLS000566826]	> 300
Nc1nonc1-n1nnc(C(=O)NN=Cc2ccc(Cl)cc2Cl)c1CN1CCCCC1 [MLS000950038]	> 300
O=NCc1ccc(Sc2ccccc2)c([N+](=O)[O-])c1 [N-[(3-nitro-4-phenylsulfanylphenyl)methylidene]hydroxylamine]	39.3
CCCc1c(NC(=O)Nc2ccc(F)cc2)cnn1-c1ccccc1 [1-(4-fluorophenyl)-3-(1-phenyl-5-propylpyrazol-4-yl)urea]	> 300
Nc1nc(Nc2ccccc2)nc(NCc2ccccc2)c1[N+](=O)[O-]	13.3
Fc1cccc(Cl)c1CSc1nnc(-c2ccncc2)o1 [2-[(2-chloro-6-fluorophenyl)methylthio]-5-pyridin-4-yl-1,3,4-oxadiazole]	9.25
Cc1ccc(-c2nn(-c3ccccc3)cc2CNCc2ccccc2)cc1 [MLS000672046]	> 300
O=C(O)c1ccccc1Nc1ccccc1C(=O)O [2-[(2-carboxyphenyl)amino]benzoic acid]	> 300
CCn1c(SCc2c(F)cccc2Cl)nnc1-c1ccco1 [3-[(2-chloro-6-fluorophenyl)methylsulfanyl]-4-ethyl-5-(furan-2-yl)-1,2,4-triazole]	> 300
CC1(C)CC(=O)C=C(Nc2ccccc2O)C1 [3-[(2-hydroxyphenyl)amino]-5,5-dimethyl-cyclohex-2-en-1-one]	> 300

Structure (SMILES)	EC50 [µM]
CCOc1cccc(C(=O)Nc2cccc(-c3nc4ncccc4o3)c2C)c1 [3-ethoxy-N-[2-methyl-3-([1,3]oxazolo[4,5-b]pyridin-2-yl)phenyl]benzamide]	> 300
Nc1ncnc(NC2CCS(=O)(=O)C2)c1[N+](=O)[O-] (configuration not stated) [4-N-(1,1-dioxothiolan-3-yl)-5-nitropyrimidine-4,6-diamine]	> 300
O=C(Nc1sccc1C(=O)N1CCOCC1)c1cccnc1 [N-[3-[4-morpholinyl(oxo)methyl]-2-thiophenyl]-3-pyridinecarboxamide]	29.2
CCOC(=O)CNC(=O)CSc1ccc2nnc(-c3ccc(F)cc3)n2n1 [MLS000684782]	> 300
COc1ccc(-c2cc(C(F)(F)F)nc(SCCC(=O)N3CCOCC3)n2)cc1 [3-[4-(4-methoxyphenyl)-6-(trifluoromethyl)pyrimidin-2-yl]sulfanyl-1-morpholin-4-ylpropan-1-one]	> 300
Cc1nnc(SCC(=O)Nc2ccc(Cl)cn2)[nH]c1=O [N-(5-chloro-2-pyridinyl)-2-[(6-methyl-5-oxo-2H-1,2,4-triazin-3-yl)thio]acetamide]	36.7
Nc1ccc2oc(-c3ccccc3Cl)cc(O)c-2c1=O [6-amino-2-(2-chlorophenyl)-5-hydroxy-1-benzopyran-4-one]	> 300
CCOC(=O)/C(C#N)=C/c1cn(CCC(=O)O)nc1-c1cccc(Cl)c1 [3-[3-(3-chlorophenyl)-4-[(E)-2-cyano-3-ethoxy-3-oxidanylidene-prop-1-enyl]pyrazol-1-yl]propanoic acid]	> 300
O=C(CSc1ccc2nnc(-c3cccs3)n2n1)N1CCCC1 [1-(1-pyrrolidinyl)-2-[(3-thiophen-2-yl-[1,2,4]triazolo[4,3-b]pyridazin-6-yl)thio]ethanone]	> 300
O=C(Nc1ccccn1)Nc1ccccc1[N+](=O)[O-] [N-(2-nitrophenyl)-N'-pyridin-2-ylurea]	> 300
Cc1onc(-c2ccccc2)c1C(=O)n1cccn1	> 300
O=C1Nc2cc(C(=O)NCCCN3CCOCC3)ccc2S/C1=C/c1ccccc1F [(2E)-2-[(2-fluorophenyl)methylidene]-N-(3-morpholin-4-ylpropyl)-3-oxo-4H-1,4-benzothiazine-6-carboxamide]	18.2
COc1ccc(C(=O)c2coc3ccc(O)c(CN4CCCCC4)c23)cc1 [[5-hydroxy-4-(piperidin-1-ylmethyl)-1-benzofuran-3-yl]-(4-methoxyphenyl)methanone]	> 300
Nc1nonc1-n1nnc(C(=O)NN=Cc2ccc(O)cc2)c1CN1CCCCCC1 [1-(4-azanyl-1,2,5-oxadiazol-3-yl)-5-(azepan-1-ylmethyl)-N'-[(4-oxidanylidenecyclohexa-2,5-dien-1-ylidene)methyl]-1,2,3-triazole-4-carbohydrazide]	1.85
CC(C)n1cnc2c(Nc3cccc(Cl)c3)nc(NCCCO)nc21	> 300
NC(=O)c1c(NC(=O)CCCn2cnc([N+](=O)[O-])n2)sc2c1CCCC2 [2-{[4-(3-nitro-1H-1,2,4-triazol-1-yl)butanoyl]amino}-4,5,6,7-tetrahydro-1-benzothiophene-3-carboxamide]	105
CCN(CC)S(=O)(=O)c1cccc(-n2cc(O)c(-c3ccccc3)c2N)c1 [SMR000368326]	> 300
Cc1ccccc1-c1nnc(SCc2ccc(F)cc2)o1 [2-[(4-fluorophenyl)methylsulfanyl]-5-(2-methylphenyl)-1,3,4-oxadiazole]	> 300
COc1ccc(-c2nn(-c3ccccc3)cc2/C=C/C(=O)N2CCOCC2)cc1OC [MLS001017845]	> 300
CC1Cc2cc(-c3csc(NC(=O)Cc4ccccc4)n3)ccc2N1S(C)(=O)=O (configuration not stated) [N-[4-(1-Methanesulfonyl-2-methyl-2,3-dihydro-1H-indol-5-yl)-thiazol-2-yl]-2-phenyl-acetamide]	> 300
